Experiments:
[1] = tested on: human prostate cancer cell line (DU145); assay: In vivo inhibition of tumor growth, DU145 xenograft; parameters: species or system human tumor cells in nude mice; conditions: for Starting volume: at start
Experimental: (§1) Cells from a non-small cell lung cancer cell line (A549) were grown in nine T175 flasks in F12K media and 10% fetal calf serum until the cells were confluent. 4.5×10^6 cells (in 100 microliters) were injected into the right rear flank of 4-5 week old male homozygous (nu/nu) nude mice (Harlan, Madison Wis.). Tumors were allowed to grow to an average size of ≧75 mm^3 before treatments were initiated. Animals of each tumor type, with the properly sized tumors, were divided into treatment groups, including one set of animals treated weekly with vehicle (phosphate buffered saline, PBS). The vehicle and the test agents were all administered by intraperitoneal injection. Each animal was weighed twice a week during treatment. The tumors were measured twice weekly using calipers. Tumor volume (mm^3) was determined by using the formula for an ellipsoid sphere: […]
(§2) The percent tumor growth inhibition (% TGI) is calculated by: […]
This xenograft model was set up as in the previous example except that a human prostate cancer cell line (DU145) was used. The efficacy of wild type human RNase 1 is shown relative to docetaxel. The RNase 1 was administered at 75 mg per kg of body weight of the animal (75 mg/kg 1×wk), while the docetaxel was used at 8 mg/kg once a week. The value of n represents the number of animals in the specific treatment arm of the experiment.
(§3) The xenograft model of this example was set up as in the previous example except that a human prostate cancer cell line (DU145) was used. The efficacy of wild type human RNase 1 is shown. The RNase 1 was administered at 75 mg per kg of body weight of the animal once per week (75 mg/kg 1×wk). The value of n represents the number of animals in the specific treatment arm of the experiment.
as §3, with “example.” for “example except that a human prostate cancer cell line (DU145) was used.”, “three different doses: (1) 15” for “75”, “(15” for “(75”, “1×wk), (2) 75 mg/kg 1×wk, or (3) 300 mg/kg 1×wk.” for “1×wk).”

[2] = tested on: human breast cancer cell line (MDA-MB-231); assay: In vivo inhibition of tumor growth, MDA-MB-231 xenograft; parameters: species or system human tumor cells in nude mice; conditions: Example 10, Table 14, female mice, RNase 1 75 mg/kg 1×wk, doxorubicin 3 mg/kg once per week
Experimental: as §1, §2
The xenograft model of this example was set up as in the previous example except that a human breast cancer cell line (MDA-MB-231) and female mice were used. The efficacy of wild type human RNase 1 is shown relative to doxorubicin. The RNase 1 was administered at 75 mg per kg of body weight of the animal once per week (75 mg/kg 1×wk), while the doxorubicin was given at 3 mg/kg once per week. The value of n represents the number of animals in the specific treatment arm of the experiment.

[3] = Clinical chemistry and complete blood count plus platelets (DU145 xenograft mice); type: in vivo
Experimental: Clinical chemistry and a complete blood count (CBC) plus platelets were performed on whole blood and serum samples collected from the mice 24 hours after the last treatment of the prostate xenograft model above. […] Creatinine was also tested and found not to differ. The levels of the liver enzymes, gamma glutamyl transferase (GGT) and alanine transaminase (ALT) in all treatment groups were similar (GGT data not shown.). The values were determined for the various treatment groups of the prostate (DU145) xenograft study for clinical chemistry (A., B.), complete blood count (C., D.), and platelets (F.). Abbreviations: TCO2, amount of bicarbonate ion (HCO3^−); Anion Gap, [Na+K]—[Cl+HCO3]; ALT, alanine aminotransferase; WBC, white blood count; RBC, red blood count; HGB, hemoglobin; RBC HGB, (CHCM×RBC×MCV)/1000); MCH, mean corpuscular hemoglobin; MCHC, mean corpuscular hemoglobin concentration; RDW, red cell distribution width; MPV, mean platelet volume; HCT, hematocrit; MCV, mean corpuscular volume.

tumor = conditions: previous experiments, Cancer Res., 64:4870 [2004]; cited from earlier work
[4] = Example 4, Table 8, RNase 1 75 mg/kg 1×wk, docetaxel 8 mg/kg once a week
[5] = Example 8, Table 12, 75 mg/kg 1×wk
[6] = Example 9, Table 13, set up as in the previous example, 15 mg/kg 1×wk
[7] = Example 9, Table 13, set up as in the previous example, 75 mg/kg 1×wk
[8] = Example 9, Table 13, set up as in the previous example, 300 mg/kg 1×wk

In the case of “Wild type human RNase 1: wild type human ribonuclease 1 (human pancreatic RNase), SEQ ID NO:1”, the “% TGI” value [1, 4] is reported as 80%, the “(Final − start)” value [1, 4] is reported as 478 mm^3 and the “(Final − start)/Control” value [1, 4] is reported as 0.20. For the same substance, the Final volume [1, 4] was 539 mm^3, the Starting volume [1, 4] was 61 mm^3 and the “% TGI” value [1, 5] was 77%. The “(Final − start)” value [1, 5] was 607 mm^3, the “(Final − start)/Control” value [1, 5] was 0.23 and the Final volume [1, 5] was 669 mm^3. The Starting volume [1, 5] was 62 mm^3, the “% TGI” value [1, 6] was 0% and the “(Final − start)” value [1, 6] was 1136 mm^3. The “(Final − start)/Control” value [1, 6] was 1, the Final volume [1, 6] was 1246 mm^3 and the Starting volume [1, 6] was 110 mm^3. For the same substance, the “% TGI” value [1, 7] was 61%, the “(Final − start)” value [1, 7] was 445 mm^3 and the “(Final − start)/Control” value [1, 7] was 0.39. The Final volume [1, 7] was 559 mm^3, the Starting volume [1, 7] was 114 mm^3 and the “% TGI” value [1, 8] was 43%. For the same substance, the “(Final − start)” value [1, 8] was 652 mm^3, the “(Final − start)/Control” value [1, 8] was 0.57 and the Final volume [1, 8] was 766 mm^3. The Starting volume [1, 8] was 114 mm^3, the “% TGI” value [2] was 64% and the “(Final − start)” value [2] was 50 mm^3. The “(Final − start)/Control” value [2] was 0.36, the Final volume [2] was 121 mm^3 and the Starting volume ([2]; at start) was 71 mm^3. For the same substance, the Creatinine versus vehicle ([3]; 24 hours after the last treatment) was “not to differ”, the “Clinical chemistry and complete blood count plus platelets, all tests, versus vehicle” value ([3]; whole blood and serum 24 hours after the last treatment, Mann-Whitney U test) was “not to be significantly different” and the “reduction in tumor volume” value (tumor) was “did not demonstrate a reduction in tumor volume”.
